Experimental data: patent US10131663B2, “Chemical compounds” (AstraZeneca AB, priority 2016, dated 2018)

Tests used:
[1] = target: T1, Estrogen Receptor (ERα) in MCF-7 cells (Homo sapiens (Human), UniProt P03372); test: Western blotting assay, ER down-regulation in MCF-7; type: cell-based; details: 100 nM compound, 48 h, normalised to 100 nM fulvestrant
In short: (§1)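 Cells treated with compounds at 100 nM or 0.1% DMSO vehicle for 48 h at 37 °C, then lysed; ERα detected by western blot with anti-ERα (SP1) rabbit monoclonal. Down-regulation normalised to vehicle (0%) and 100 nM fulvestrant (100%) run on the same gel.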

[2] = Human plasma protein binding (equilibrium dialysis); type: in vitro ADME; details: dialysis 18 hours
In short: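 Fraction unbound (fu %) in human plasma, from LC/MSMS of plasma and buffer sides (7-point plasma calibration) after 18 h rapid equilibrium dialysis. Single determinations, with compounds pooled up to 10 per plasma pool.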

[3] = log D (shake flask, 1-octanol/aqueous buffer); type: physicochemical; details: pH 7.4, 1-octanol/aqueous buffer
In short: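 Distribution between 1-octanol and aqueous buffer at pH 7.4 was measured by shake flask, with compounds run in mixtures of ten. Relative concentrations in each phase were quantified by UPLC with quantitative MS. Caffeine served as a low-log D QC sample in all runs.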

[4] = target: recombinant human Estrogen Receptor alpha ligand binding domain (ER alpha-LBD (GST)) (Homo sapiens (Human), UniProt P03372); test: ERα binding assay (LanthaScreen TR-FRET competition); details: TR-FRET, displacement of Fluormone ES2
In short: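 Competition binding to GST-tagged human ERα ligand-binding domain, read by LanthaScreen TR-FRET: Tb-anti-GST antibody labels the receptor and compounds displace a fluorescent tracer, lowering the signal. IC50 was taken from dose-response curve fitting.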

[5] = target: estrogen receptor (ERα) in CAMA-1 cells (Homo sapiens (Human), UniProt P03372); test: Western blotting assay, ER down-regulation in CAMA-1; type: cell-based; details: 100 nM compound, 48 h, normalised to 100 nM fulvestrant
In short: as §1

[6] = Human Caco-2 bidirectional permeability A to B and B to A; type: in vitro ADME; details: for Papp at 2 h: Caco-2, 2 hours, pH 7.4; for efflux ratio at 2 h: Caco-2, pH 7.4
[7] = target: T1, Estrogen Receptor (ERα) in MCF-7 cells; test: MCF-7 ER down-regulation assay (immuno-fluorescence); type: cell-based
In short: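 Compounds dispensed acoustically from DMSO stocks onto MCF-7 cells; cells fixed 20 min at room temperature, then automated immunostaining for ERα with overnight incubation at 4° C. Read-out is mean total ER fluorescence intensity normalized to cell number (intensity per cell), with curve fitting for concentration-response values.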

Sequence of recombinant human Estrogen Receptor alpha ligand binding domain (ER alpha-LBD (GST)) (P03372 307-554): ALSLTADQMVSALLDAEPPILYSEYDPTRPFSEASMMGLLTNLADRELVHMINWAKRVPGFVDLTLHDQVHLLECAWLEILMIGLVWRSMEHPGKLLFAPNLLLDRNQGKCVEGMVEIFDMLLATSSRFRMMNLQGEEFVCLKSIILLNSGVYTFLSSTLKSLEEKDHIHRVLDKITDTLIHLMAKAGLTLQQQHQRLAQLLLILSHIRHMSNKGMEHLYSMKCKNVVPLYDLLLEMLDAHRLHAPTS
T1 sequence (P03372 whole entry): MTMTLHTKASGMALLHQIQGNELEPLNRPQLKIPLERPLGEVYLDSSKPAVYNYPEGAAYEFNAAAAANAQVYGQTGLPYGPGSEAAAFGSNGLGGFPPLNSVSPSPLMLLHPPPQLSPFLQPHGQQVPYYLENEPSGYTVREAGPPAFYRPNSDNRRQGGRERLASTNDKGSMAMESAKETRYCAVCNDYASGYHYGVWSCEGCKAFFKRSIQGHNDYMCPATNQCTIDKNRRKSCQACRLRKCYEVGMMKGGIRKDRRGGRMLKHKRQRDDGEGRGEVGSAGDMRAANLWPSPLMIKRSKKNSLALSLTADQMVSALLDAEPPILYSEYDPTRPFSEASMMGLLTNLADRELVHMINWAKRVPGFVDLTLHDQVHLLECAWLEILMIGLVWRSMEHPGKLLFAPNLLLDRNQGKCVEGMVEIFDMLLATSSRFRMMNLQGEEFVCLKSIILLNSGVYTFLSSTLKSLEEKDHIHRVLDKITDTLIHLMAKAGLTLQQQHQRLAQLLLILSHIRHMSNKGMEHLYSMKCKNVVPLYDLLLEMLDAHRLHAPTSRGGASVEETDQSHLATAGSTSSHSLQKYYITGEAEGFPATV
Sequence of estrogen receptor (ERα) in CAMA-1 cells (P03372 whole entry): as above

Row | SMILES | MCF7 Western % ER deg vs Fv [1] | Human plasma protein binding (% free) [2] | logD [3] | IC50 [4] | CAMA1 Western % ER deg vs Fv [5] | Papp at 2 h [6] | efflux ratio at 2 h [6] | IC50 [7]
1 | C[C@@H]1Cc2c(ccc3[nH]ncc23)[C@@H](c2ncc(NC3CN(CCCF)C3)cc2F)N1CC(F)(F)F [Example 30, 5-fluoro-N-(1-(3-fluoropropyl)azetidin-3-yl)-6-((6S,8R)-8-methyl-7-(2,2,2-trifluoroethyl)-6,7,8,9-tetrahydro-3H-pyrazolo[4,3-f]isoquinolin-6-yl)pyridin-3-amine] | 96% | 16 % free | 3 | 1.8 nM | 98% | 2.7 ×10⁻⁶ cm/s | 7.8 | 0.28 nM
2 | C[C@@H]1Cc2c(ccc3[nH]nc(F)c23)[C@@H](c2ncc(NC3CN(CCCF)C3)cc2F)N1CC(F)(F)F [Example 33, 5-Fluoro-6-((6S,8R)-1-fluoro-8-methyl-7-(2,2,2-trifluoroethyl)-6,7,8,9-tetrahydro-3H-pyrazolo[4,3-f]isoquinolin-6-yl)-N-(1-(3-fluoropropyl)azetidin-3-yl)pyridin-3-amine] | 98% | 5.4 % free | 3.6 | 1.4 nM | 102% | 2.6 ×10⁻⁶ cm/s | 1.5 | 0.1 nM
3 | COc1cc(NC2CN(CCCF)C2)ccc1[C@@H]1c2ccc3[nH]ncc3c2C[C@@H](C)N1CC(C)(C)F [Example 64, N-(4-((6S,8R)-7-(2-fluoro-2-methylpropyl)-8-methyl-6,7,8,9-tetrahydro-3H-pyrazolo[4,3-f]isoquinolin-6-yl)-3-methoxyphenyl)-1-(3-fluoropropyl)azetidin-3-amine] | 86% | 14 % free | 3.2 | 6.1 nM | 89% | 2 ×10⁻⁶ cm/s | 5.6 | 0.22 nM
